{
  "source": "paper PMC3715121",
  "about": "(Journal of natural products, 2009)",
  "key": {"[1]": {"test_system": "Mycobacterium intracellulare ATCC 23068", "assay": "Antimicrobial assay, M. intracellulare", "type": "cell-based", "conditions": "for MIC: ATCC23068, read-out: MIC, M. intracellulare"}, "[2]": {"test_system": "P. berghei (NK-65 strain)", "assay": "In vivo antimalarial assay"}, "RBC": {"test_system": "RBC", "assay": "Hemolytic activity", "conditions": "from IC50 (RBC lysis)"}, "[3]": {"test_system": "KB (human epidermoid carcinoma)", "assay": "Cytotoxicity assay, KB", "type": "cell-based", "conditions": "48 h, read-out: IC50 KB"}, "[4]": {"test_system": "Candida albicans ATCC 90028", "assay": "Antimicrobial assay, C. albicans", "type": "cell-based", "conditions": "ATCC90028, read-out: IC50, C. albicans"}, "[5]": {"test_system": "P. falciparum Sierra Leone D6 (chloroquine-sensitive)", "assay": "Antimalarial/parasite LDH assay, D6 clone", "type": "cell-based", "conditions": "Plasmodium falciparum, D6, 72 h, read-out: P. falciparum D6 IC50"}, "[6]": {"test_system": "L. donovani promastigotes", "assay": "Antileishmanial assay", "type": "cell-based", "conditions": "Leishmania donovani, 48 h, read-out: L. donovani IC50"}, "[7]": {"test_system": "Cryptococcus neoformans ATCC 90113", "assay": "Antimicrobial assay, C. neoformans", "type": "cell-based"}, "[8]": {"test_system": "Aspergillus fumigatus ATCC 90906", "assay": "Antimicrobial assay, A. fumigatus", "type": "cell-based", "conditions": "ATCC90906, read-out: IC50, A. fumigatus"}, "[9]": {"test_system": "methicillin-resistant Staphylococcus aureus ATCC 43300", "assay": "Antimicrobial assay, MRSA", "type": "cell-based", "conditions": "ATCC43300|MRSA; for MBC: read-out: MBC, MRSA; for MIC: read-out: MIC, MRSA"}, "[10]": {"test_system": "SK-MEL (human malignant melanoma)", "assay": "Cytotoxicity assay, SK-MEL", "type": "cell-based", "conditions": "48 h, read-out: IC50 SK-MEL"}},
  "data": [
    {"smiles": "C[C@@H]1N[C@H](CCCCCCCCCCc2cc(CCCCCCCCCC[C@@H]3CC[C@H](O)[C@@H](C)N3)c3[n+](c2)CCC3)CC[C@H]1O.[Cl-]", "note": "[Compound 1]", "values": [
      {"measurement": "MIC", "setting": "[1]", "result": 2.5, "unit": "µg/mL"},
      {"measurement": "Cure (mice without parasitemia till day 28/total mice in group)", "setting": "[2]; 1 mg/kg × 3 days, ip", "result": "0/5"},
      {"measurement": "Cure (mice without parasitemia till day 28/total mice in group)", "setting": "[2]; 2 mg/kg × 3 days, ip", "result": "0/5"},
      {"measurement": "toxicity observed due to treatment", "setting": "[2]; 1 and 2 mg/Kg/day for 3 days, ip, mice", "result": "no significant toxicity"},
      {"measurement": "fold less toxic than amphotericin B in regard to hemolytic activity", "setting": "RBC", "result": "> 4", "unit": "fold"}
    ]},
    {"smiles": "C[C@@H]1[C@H](O)[C@@H](C)/C=C/C=C/C=C/C=C/C=C/C=C/C=C/[C@H](O[C@@H]2O[C@H](C)[C@@H](O)[C@H](N)[C@@H]2O)C[C@@H]2O[C@](O)(C[C@@H](O)C[C@@H](O)[C@H](O)CC[C@@H](O)C[C@@H](O)CC(=O)O[C@H]1C)C[C@H](O)[C@H]2C(=O)O", "note": "[Amphotericin B]", "values": [
      {"measurement": "IC50", "setting": "[3]", "result": "> 25", "unit": "µg/mL"}
    ]},
    {"smiles": "CCO[C@H]1O[C@@H]2O[C@@]3(C)CC[C@H]4[C@H](C)CC[C@@H]([C@H]1C)[C@@]24OO3", "note": "[β-Arteether, β-arteether, reference compound]", "values": [
      {"measurement": "Cure (mice without parasitemia till day 28/total mice in group)", "setting": "[2]; 10 mg/kg × 3 days", "result": "5/5"}
    ]},
    {"smiles": "C[C@@H]1N[C@H](CCCCCCCCCCc2cc(CCCCCCCCCC[C@H]3CC[C@@H](O)[C@@H](C)N3)c[n+]3c2CCC3)CC[C@H]1O", "note": "[Compound 4, Isoprosopilosidine]", "values": [
      {"measurement": "IC50", "setting": "[4]", "result": "> 20", "unit": "µg/mL"},
      {"measurement": "IC50", "setting": "[5]", "result": 0.042, "unit": "µg/mL"},
      {"measurement": "IC50", "setting": "[6]", "result": 0.8, "unit": "µg/mL"}
    ]},
    {"smiles": "C[C@@H]1N[C@H](CCCCCCCCCCC2=C[C@@H](CCCCCCCCCC[C@@H]3CC[C@@H](O)[C@H](C)N3)[C@@H]3CCCN3C2)CC[C@H]1O.Cl.Cl", "note": "[Compound 7, Prosopilosine dihydrochloride]", "values": [
      {"measurement": "MFC", "setting": "[7]; ATCC90113, read-out: MFC, C. neoformans", "result": 5, "unit": "µg/mL"},
      {"measurement": "MIC", "setting": "[7]; ATCC90113, read-out: MIC, C. neoformans", "result": 5, "unit": "µg/mL"},
      {"measurement": "IC50", "setting": "[4]", "result": "> 20", "unit": "µg/mL"},
      {"measurement": "IC50", "setting": "[8]", "result": "> 20", "unit": "µg/mL"},
      {"measurement": "MBC", "setting": "[9]", "result": 5, "unit": "µg/mL"},
      {"measurement": "MIC", "setting": "[9]", "result": 5, "unit": "µg/mL"},
      {"measurement": "IC50", "setting": "[6]", "result": 3.1, "unit": "µg/mL"}
    ]},
    {"smiles": "C[C@@H]1N[C@H](CCCCCCCCCCc2cc(CCCCCCCCCC[C@@H]3CC[C@@H](O)[C@H](C)N3)c3[n+](c2)CCC3)CC[C@H]1O.[Cl-]", "note": "[Compound 6, Prosopilosidine dihydrochloride]", "values": [
      {"measurement": "IC50", "setting": "[8]", "result": "> 20", "unit": "µg/mL"},
      {"measurement": "MBC", "setting": "[9]", "result": 5, "unit": "µg/mL"}
    ]},
    {"smiles": "CCN(CC)CCCC(C)Nc1ccnc2cc(Cl)ccc12", "note": "(stereo not drawn) [Chloroquine, chloroquine, reference compound]", "values": [
      {"measurement": "IC50", "setting": "[5]", "result": 0.017, "unit": "µg/mL"}
    ]},
    {"smiles": "C[C@H]1N[C@@H](CCCCCCCCCCC2=C[C@@H](CCCCCCCCCC[C@@H]3CC[C@H](O)[C@@H](C)N3)[C@@H]3CCCN3C2)CC[C@H]1O.Cl.Cl", "note": "[Compound 8, Isoprosopilosine dihydrochloride]", "values": [
      {"measurement": "MBC", "setting": "[9]", "result": 5, "unit": "µg/mL"},
      {"measurement": "MIC", "setting": "[9]", "result": 5, "unit": "µg/mL"}
    ]},
    {"smiles": "C[C@H]1N[C@@H](CCCCCCCCCCC2=C[C@@H](CCCCCCCCCC[C@@H]3CC[C@H](O)[C@@H](C)N3)[C@@H]3CCCN3C2)CC[C@H]1O", "note": "[Compound 3, Isoprosopilosine]", "values": [
      {"measurement": "IC50", "setting": "[4]", "result": "> 20", "unit": "µg/mL"},
      {"measurement": "MIC", "setting": "[1]", "result": 5, "unit": "µg/mL"},
      {"measurement": "IC50", "setting": "[10]", "result": "< 1.1", "unit": "µg/mL"}
    ]},
    {"smiles": "C[C@H]1N[C@@H](CCCCCCCCCCC2=C[C@@H](CCCCCCCCCC[C@H]3CC[C@@H](O)[C@@H](C)N3)[C@@H]3CCCN3C2)CC[C@H]1O", "note": "[Compound 5, juliprosopine]", "values": [
      {"measurement": "IC50", "setting": "[4]", "result": "> 20", "unit": "µg/mL"},
      {"measurement": "MBC", "setting": "[1]; ATCC23068, read-out: MBC, M. intracellulare", "result": 20, "unit": "µg/mL"},
      {"measurement": "MIC", "setting": "[1]", "result": 20, "unit": "µg/mL"}
    ]},
    {"smiles": "C[C@@H]1N[C@H](CCCCCCCCCCC2=C[C@@H](CCCCCCCCCC[C@@H]3CC[C@@H](O)[C@H](C)N3)[C@@H]3CCCN3C2)CC[C@H]1O", "note": "[Compound 2, 6,8-bis-[(2R,5R,6R)-5-hydroxy-6-methylpiperidin-2-yl]decyl-[8R,8aS]-6,7-dehydroindolizidine]", "values": [
      {"measurement": "MIC", "setting": "[1]", "result": 5, "unit": "µg/mL"},
      {"measurement": "MBC", "setting": "[9]", "result": 10, "unit": "µg/mL"},
      {"measurement": "MIC", "setting": "[9]", "result": 2.5, "unit": "µg/mL"},
      {"measurement": "IC50", "setting": "[10]", "result": "< 1.1", "unit": "µg/mL"}
    ]},
    {"smiles": "O=C(O)c1cn(C2CC2)c2cc(N3CCNCC3)c(F)cc2c1=O", "note": "[Ciprofloxacin, reference compound]", "values": [
      {"measurement": "IC50", "setting": "[1]; ATCC23068, read-out: IC50, M. intracellulare", "result": 0.25, "unit": "µg/mL"}
    ]}
  ]
}
